Patent publication US20070117743A1, “New antitumoral compounds” (priority 2003, published 2007)
Where a SMILES comes first, the peptide text is derived from it. Bridges are numbered along the chain shown (N, C = ends). [ ]: non-standard residue; d: D form. The star is where a group is joined. d(aIle) = CC[C@H](C)[C@@H](N)C(=O)O; d(aThr) = C[C@@H](O)[C@@H](N)C(=O)O; Hexanoyl(5-Me) = CC(C)CCCC(=O)*; Orn = NCCC[C@H](N)C(=O)O; Dhb = C/C=C(\N)C(=O)O

What was measured:
Type in all cases: cell-based, human
[1] = system: A-549; assay: SRB colorimetric assay of cell growth and viability, A-549; settings: 48 hours exposure; for GI50: read-out: GI50 A-549; for CC50: read-out: LC50 A-549
[2] = system: SK-MEL-28; assay: SRB colorimetric assay of cell growth and viability, SK-MEL-28; settings: 48 hours exposure; for CC50: read-out: LC50 MEL-28
[3] = system: HT-29; assay: SRB colorimetric assay of cell growth and viability, HT-29; settings: 48 hours exposure; for GI50: read-out: GI50 HT-29; for CC50: read-out: LC50 HT-29
[4] = system: LoVo; assay: SRB colorimetric assay of cell growth and viability, LoVo; settings: 48 hours exposure; for CC50: read-out: LC50 LOVO
[5] = system: DU-145; assay: SRB colorimetric assay of cell growth and viability, DU-145; settings: 48 hours exposure
[6] = system: LNCaP; assay: SRB colorimetric assay of cell growth and viability, LNCaP; settings: 48 hours exposure; for GI50: read-out: GI50 LN-caP; for CC50: read-out: LC50 LN-caP
[7] = system: SK-BR-3; assay: SRB colorimetric assay of cell growth and viability, SK-BR-3; settings: 48 hours exposure
[8] = system: IGROV-1; assay: SRB colorimetric assay of cell growth and viability, IGROV-1; settings: 48 hours exposure
[9] = system: IGROV-ET; assay: SRB colorimetric assay of cell growth and viability, IGROV-ET; settings: 48 hours exposure; for CC50: read-out: LC50 IGROV-ET
[10] = system: HeLa; assay: SRB colorimetric assay of cell growth and viability, HeLa; settings: 48 hours exposure; for CC50: read-out: LC50 HELA
[11] = system: HeLa-APL; assay: SRB colorimetric assay of cell growth and viability, HeLa-APL; settings: 48 hours exposure; for CC50: read-out: LC50 HELA-APL
[12] = system: K-562; assay: SRB colorimetric assay of cell growth and viability, K-562; settings: 48 hours exposure; for CC50: read-out: LC50 K-562
[13] = system: PANC-1; assay: SRB colorimetric assay of cell growth and viability, PANC-1; settings: 48 hours exposure; for CC50: read-out: LC50 PANC-1

Row | SMILES | TGI A-549 [1] | GI50 [1] | GI50 [2] | TGI MEL-28 [2] | TGI HT-29 [3] | GI50 [3] | GI50 [4] | TGI LOVO [4] | GI50 [5] | TGI DU-145 [5] | TGI LN-caP [6] | GI50 [6] | GI50 [7] | TGI SK-BR-3 [7] | GI50 [8] | TGI IGROV [8] | GI50 [9] | TGI IGROV-ET [9] | GI50 [10] | TGI HELA [10] | further results
1 | C/C=C1\NC(=O)[C@H](Cc2ccccc2)NC(=O)[C@@H](C(C)C)NC(=O)[C@@H]([C@@H](C)CC)NC(=O)[C@H](NC(=O)[C@H](NC(=O)[C@H](CCCN)NC(=O)[C@H]2CCCN2C(=O)[C@H](NC(=O)[C@H](CC(C)C)NC(=O)[C@@H](NC(=O)[C@H](NC(=O)CCCC(C)C)C(C)C)[C@@H](C)O)C(C)C)[C@@H](C)CC)[C@@H](C)OC(=O)[C@H](C(C)C)NC1=O [Compound 45, [Leu^11]-KF] ({Hexanoyl(5-Me)}-[dV]TL[dV][dP][Orn][d(aIle)][d(aThr)][d(aIle)][dV]F[Dhb]V; ester 8-C) | 1.90E−06 Molar | 0.925 µM | 1.03 µM | 2.05E−06 Molar | 1.17E−06 Molar | 0.316 µM | 0.113 µM | 2.32E−07 Molar | 0.731 µM | 1.61E−06 Molar | 2.35E−06 Molar | 1.02 µM | 0.163 µM | 4.10E−07 Molar | 0.332 µM | 1.23E−06 Molar | 0.421 µM | 1.30E−06 Molar | 0.938 µM | 2.16E−06 Molar | CC50 [1]: 3.93 µM; CC50 [2]: 4.11 µM; CC50 [3]: 3.66 µM; CC50 [4]: 0.476 µM; LC50 (concentration causing 50% net cell kill) [5]: 3.54 µM; CC50 [6]: 5.44 µM; LC50 [7]: 1.68 µM; LC50 (concentration causing 50% net cell killing) [8]: 4.02 µM; CC50 [9]: 3.69 µM; CC50 [10]: 4.98 µM; GI50 [11]: 0.912 µM; TGI HELA-APL [11]: 1.94E−06 Molar; CC50 [11]: 4.13 µM; GI50 [12]: 1.49 µM; TGI K-562 [12]: 3.10E−06 Molar; CC50 [12]: ≥ 6.4 µM; GI50 [13]: 2.32 µM; TGI PANC-1 [13]: 6.70E−06 Molar; CC50 [13]: 6.7 µM
2 | C/C=C1\NC(=O)[C@H](Cc2ccccc2)NC(=O)[C@@H](C(C)C)NC(=O)[C@@H]([C@@H](C)CC)NC(=O)[C@H](NC(=O)[C@H](NC(=O)[C@H](CCCN)NC(=O)[C@H]2CCCN2C(=O)[C@H](NC(=O)[C@@H](NC(=O)[C@@H](NC(=O)[C@H](NC(=O)c2ccc(C)cc2)C(C)C)[C@@H](C)O)C(C)C)C(C)C)[C@@H](C)CC)[C@@H](C)OC(=O)[C@H](C(C)C)NC1=O [Compound 19, [p-MeBza^14]-KF] | 1.71E−06 Molar | 0.775 µM | 1.16 µM | 2.24E−06 Molar | 1.12E−06 Molar | 0.314 µM | 0.12 µM | 2.35E−07 Molar | 0.775 µM | 1.73E−06 Molar | 2.55E−06 Molar | 1.02 µM | 0.17 µM | 3.77E−07 Molar | 0.343 µM | 1.37E−06 Molar | 0.439 µM | 1.44E−06 Molar | 0.849 µM | 1.95E−06 Molar | GI50 [11]: 0.923 µM; TGI HELA-APL [11]: 2.00E−06 Molar; GI50 [12]: 0.762 µM; TGI K-562 [12]: 2.01E−06 Molar; GI50 [13]: 2.06 µM
3 | C/C=C1\NC(=O)[C@H](Cc2ccccc2)NC(=O)[C@@H](C(C)C)NC(=O)[C@@H]([C@@H](C)CC)NC(=O)[C@H](NC(=O)[C@H](NC(=O)[C@H](CCCN)NC(=O)[C@H]2CCCN2C(=O)[C@H](NC(=O)[C@@H](NC(=O)[C@@H](NC(=O)[C@H](NC(=O)c2ccccc2)C(C)C)[C@@H](C)O)C(C)C)C(C)C)[C@@H](C)CC)[C@@H](C)OC(=O)[C@H](C(C)C)NC1=O [Compound 20, [Bza^14]-KF] | 1.95E−06 Molar | 0.952 µM | 1.2 µM | 2.26E−06 Molar | 1.64E−06 Molar | 0.694 µM | 0.128 µM | 3.03E−07 Molar | 0.939 µM | 1.99E−06 Molar | 2.87E−06 Molar | 1.18 µM | 0.32 µM | 1.16E−06 Molar | 0.714 µM | 1.73E−06 Molar | 0.755 µM | 1.78E−06 Molar | 1.11 µM | 2.30E−06 Molar | CC50 [1]: 3.97 µM; CC50 [2]: 4.23 µM; CC50 [3]: 3.88 µM; CC50 [4]: 0.81 µM; LC50 (concentration causing 50% net cell kill) [5]: 4.25 µM; CC50 [6]: 6.8 µM; LC50 [7]: 3.38 µM; LC50 (concentration causing 50% net cell killing) [8]: 4.2 µM; CC50 [9]: 4.2 µM; CC50 [10]: 4.76 µM; GI50 [11]: 1.01 µM; TGI HELA-APL [11]: 2.08E−06 Molar; CC50 [11]: 4.27 µM; GI50 [12]: 0.305 µM; TGI K-562 [12]: 2.12E−06 Molar; CC50 [12]: 6.8 µM; GI50 [13]: 3.79 µM; TGI PANC-1 [13]: 6.80E−06 Molar; CC50 [13]: 6.8 µM
4 | C/C=C1\NC(=O)[C@H](Cc2ccccc2)NC(=O)[C@@H](C(C)C)NC(=O)[C@@H]([C@@H](C)CC)NC(=O)[C@H](NC(=O)[C@H](NC(=O)[C@H](CCCN)NC(=O)[C@H]2CCCN2C(=O)[C@H](NC(=O)[C@H](NC(=O)[C@@H](NC(=O)[C@H](NC(=O)CCCC(C)C)C(C)C)[C@@H](C)O)C(C)C)C(C)C)[C@@H](C)CC)[C@@H](C)OC(=O)[C@H](C(C)C)NC1=O [Compound 46, [D-Val^11]-KF] | 6.77E−06 Molar | 3.67 µM | ≥ 6.77 µM | 6.77E−06 Molar | 6.77E−06 Molar | 2.5 µM | 1.2 µM | 2.30E−06 Molar | 2.43 µM | 6.77E−06 Molar | 6.77E−06 Molar | 2.42 µM | 1.35 µM | 2.75E−06 Molar | 1.5 µM | 3.55E−06 Molar | 1.67 µM | 3.62E−06 Molar | 4.61 µM | 6.77E−06 Molar | CC50 [1]: ≥ 6.77 µM; CC50 [2]: ≥ 6.77 µM; CC50 [3]: ≥ 6.77 µM; CC50 [4]: 4.4 µM; LC50 (concentration causing 50% net cell kill) [5]: ≥ 6.77 µM; CC50 [6]: ≥ 6.77 µM; LC50 [7]: 5.62 µM; LC50 (concentration causing 50% net cell killing) [8]: ≥ 6.77 µM; CC50 [9]: ≥ 6.77 µM; CC50 [10]: ≥ 6.77 µM; GI50 [11]: 3.3 µM; TGI HELA-APL [11]: 6.77E−06 Molar; CC50 [11]: ≥ 6.77 µM; GI50 [12]: 3.04 µM; TGI K-562 [12]: 6.77E−06 Molar; CC50 [12]: ≥ 6.77 µM; GI50 [13]: 3.12 µM; TGI PANC-1 [13]: 6.77E−06 Molar; CC50 [13]: ≥ 6.77 µM
5 | C/C=C1\NC(=O)[C@H](Cc2ccccc2)NC(=O)[C@@H](C(C)C)NC(=O)[C@@H]([C@@H](C)CC)NC(=O)[C@H](NC(=O)[C@H](NC(=O)[C@H](CCCN)NC(=O)[C@H]2CCCN2C(=O)[C@H](NC(=O)[C@@H](NC(=O)[C@@H](NC(=O)[C@H](NC(=O)c2ccc(C(F)(F)F)cc2)C(C)C)[C@@H](C)O)C(C)C)C(C)C)[C@@H](C)CC)[C@@H](C)OC(=O)[C@H](C(C)C)NC1=O [Compound 21, [p-CF3Bza^14]-KF] | 4.06E−07 Molar | 0.146 µM | 0.897 µM | 1.85E−06 Molar | 2.59E−07 Molar | 0.114 µM | 0.0917 µM | 1.92E−07 Molar | 0.241 µM | 1.22E−06 Molar | 1.30E−06 Molar | 0.339 µM | 0.111 µM | 2.46E−07 Molar | 0.177 µM | 7.22E−07 Molar | 0.169 µM | 7.61E−07 Molar | 0.319 µM | 1.28E−06 Molar | CC50 [1]: 1.68 µM; CC50 [2]: 3.8 µM; CC50 [3]: 0.585 µM; CC50 [4]: 0.404 µM; LC50 (concentration causing 50% net cell kill) [5]: 3.28 µM; CC50 [6]: 3.52 µM; LC50 [7]: 0.543 µM; LC50 (concentration causing 50% net cell killing) [8]: 3.45 µM; CC50 [9]: 2.83 µM; CC50 [10]: 3.91 µM; GI50 [11]: 0.504 µM; TGI HELA-APL [11]: 1.48E−06 Molar; CC50 [11]: 3.67 µM; GI50 [12]: 6.5 µM; TGI K-562 [12]: 6.50E−06 Molar; CC50 [12]: 6.5 µM; GI50 [13]: 1.3 µM; TGI PANC-1 [13]: 3.11E−06 Molar; CC50 [13]: 6.5 µM
